Activity calls are given as the source filed them. The calls are words filed in the database; no cut-off is given here.
Key:
[1] = tested on: Mus musculus; assay: Antinociceptive activity in Swiss mouse assessed as reduction of acetic acid-induced abdominal constructions at 1 to 10 mg/kg, ip administered 30 mins before acetic acid challenge measured after 20 mins relative to control; format: functional, Abdomen; settings: dose mg/kg 1-10; route intraperitoneal
[2] = tested on: Mus musculus; assay: Antinociceptive activity in Swiss mouse assessed as reduction of formalin-induced inflammatory pain at 1 to 10 mg/kg, ip administered 60 mins before formalin challenge measured during 15 to 30 mins relative to control; format: functional; settings: route intraperitoneal
[3] = tested on: Mus musculus; assay: Antinociceptive activity in ip dosed Swiss mouse assessed as reduction of acetic acid-induced abdominal constructions administered 30 mins before acetic acid challenge measured for 20 mins; format: functional; settings: Abdomen, read-out: ID50 (the source's name)
[4] = tested on: Mus musculus; assay: Antinociceptive activity in ip dosed Swiss mouse assessed as reduction of formalin-induced inflammatory pain administered 60 mins before formalin challenge measured during 15 to 30 mins; format: functional; settings: read-out: ID50 (the source's name)
[5] = tested on: Mus musculus; assay: Antinociceptive activity in ip dosed Swiss mouse assessed as reduction of formalin-induced neurogenic pain administered 60 mins before formalin challenge measured during 0 to 5 mins; format: functional
[6] = tested on: Mus musculus; assay: Antinociceptive activity in Swiss mouse assessed as reduction of formalin-induced neurogenic pain at 1 to 10 mg/kg, ip administered 60 mins before formalin challenge measured during 0 to 5 mins relative to control; format: functional; settings: route intraperitoneal

Structure (SMILES): CC(=O)Nc1ccc(O)cc1 [ACETAMINOPHEN]
- inhibition (INH) [1]: 88%
- inhibition (INH) [2]: 85%
- ED50 [3]: 125 µmol/kg
- ED50 [4]: 120 µmol/kg
- Activity [5]: inactive

Structure (SMILES): C[C@@H]1CC[C@]2(C(=O)O[C@@H]3O[C@H](CO)[C@@H](O)[C@H](O)[C@H]3O)CC[C@]3(C)C(=CC[C@@H]4[C@@]5(C)C[C@@H](O)[C@H](O)[C@@](C)(CO)[C@@H]5CC[C@]43C)[C@@H]2[C@]1(C)O [NIGAICHIGOSIDE F1]
- inhibition (INH) [1]: 67.6%
- inhibition (INH) [2]: 94%
- ED50 [3]: 4.6 µmol/kg
- ED50 [4]: 4.1 µmol/kg
- inhibition (INH) [6]: 70.4%
- ED50 ([5]; read-out: ID50 (the source's name)): 3.9 µmol/kg

Structure (SMILES): CC(=O)Oc1ccccc1C(=O)O [ASPIRIN]
- inhibition (INH) [1]: 83%
- inhibition (INH) [2]: 88%
- ED50 [3]: 133 µmol/kg
- ED50 [4]: 123 µmol/kg
- Activity [5]: inactive

Source: ChEMBL document CHEMBL1144090, “Antinociceptive activity of niga-ichigoside F1 from Rubus imperialis” (1999)
